This assay concerns OCI ovarian tumor lines (P7a, P2a, C2p) and ATCC/ECACC ovarian tumor lines (ES2 and OV90). Put plainly: Alamar Blue viable cell assay with serial dilutions of paclitaxel or cisplatin, OCI vs ATCC/ECACC lines. The format is cell-based, human. Conditions: WIT-oc medium, 5000 cells/well, 72 hrs drug incubation. As for the experimental part:
The next day serial dilutions of paclitaxel were added to the plate.
The next day serial dilutions of cisplatin were added to the plate. […] There was a dramatic difference in the effect of the paclitaxel or cisplatin on OCI cell lines vs. ATCC/ECACC cell lines.
Cisplatin is an example of a chemotherapeutic drug that causes DNA cross linking. Cisplatin binds to DNA and chemically crosslinks the two strands, which causes DNA damage during cell division. This elicits repair mechanisms, which in turn activate apoptosis when repair proves impossible. We plated the OCI ovarian tumor lines (P7a, P2a, C2p) and ATCC/ECACC ovarian tumor lines (ES2 and OV90) in WIT-oc medium (5000 cells/well) in plates in triplicate. The next day serial dilutions of cisplatin were added to the plate.

Take `N.N.[Cl][Pt][Cl]` [cisplatin]: the “concentration that produced a 50% decrease in tumor cell numbers (LD90), fold higher in OCI lines compared to ATCC/ECACC lines” value was “more than 6 fold”.

These data come from US20160319239A1, “COMPOSITIONS AND METHODS FOR CULTURING CELLS FROM NORMAL HUMAN TUBO-OVARIAN EPITHELIUM AND HUMAN TUBO-OVARIAN TUMORS” (Whitehead Institute for Biomedical Research, priority 2011, published 2016).
